Test results reported in paper PMC4890114, “Intracellular quantitative detection of human thymidylate synthase engagement with an unconventional inhibitor using tetracysteine-diarsenical-probe technology” (Scientific Reports, 2016).

What was measured:
[1] = molecular target: T1, human thymidylate synthase (hTS) (Homo sapiens, UniProt P04818); experiment: Kinetic characterization of the hTS enzyme; assay type: biochemical; conditions: mTHF 3.50-69.20 μM; enzyme 0.30 μM, dUMP 120 μM; 340 nm; triplicate
T1 construct: inferred from the nickel-resin purification and the pQE80L vector; made in house; host or cells: E. coli DH5α
Method: The enzyme reaction was started when dUMP was added to the reaction mixture. […] For each single determination assay, the experimental data were analysed in triplicate with a p-value < 0.005 representing statistical significance.

[2] = tested on: TC-hTS in HEK293T cell lysates; experiment: FlAsH emission in cell lysates; assay type: binding, human; conditions: excitation 480 nm
Method: HEK293T cells (10 × 10^6) were plated into 150-mm dishes (6 dishes were used for each condition) and transfected the following day with 25 μg of pcDNA-TS or pcDNA-TS-TC using Lipofectamine™ LTX Transfection Reagent; cells were collected 48 h post-transfection in 15-ml tubes and washed twice with 4 °C cold PBS for spectrofluorometric analysis. […]
UV-visible absorption measurements were performed with a Cary 100 Varian spectrophotometer. Fluorescence measurements were carried out with a Horiba Fluoromax-3 spectrofluorometer. […] The fluorescein, hTS dimer and LR-h concentrations were determined spectrophotometrically using the following extinction coefficients: εmax (fluorescein) = 79000 M^−1 cm^−1, ε280 (hTS) = 89000 M^−1 cm^−1, ε280 (fluorescein) = 30000 M^−1 cm^−1,[28] and ε404 (LR-h) = 35000 M^−1 cm^−1, determined ad hoc for this work. The h (420 nm) and F (522 nm) emissions were measured by excitation at 370 or 380 nm. The F emission values were analysed according to the Scatchard method as functions of the LR-h concentration. The amount measured before LR-h addition and due to the direct excitation of F at 370 nm was subtracted from the intensity measured at 522 nm. […] Similar experiments were performed in 800 μl of the lysate of 60 × 10^6 HEK cells to which hTS-F was added to a concentration of 2.5 μM (determined spectrophotometrically). […]

[3] = tested on: TC-hTS-transfected HEK293T cells; experiment: FlAsH-EDT2 staining and confocal imaging of transfected HEK293T cells; assay type: cell-based, human; conditions: HEK293T transfected with empty vector, hTS or TC-hTS; 0.5 μM FlAsH, 30 min; confocal microscopy
Method: HEK293T cells (3 × 10^4) were plated into 6-well microslides pre-coated with 0.01% (w/v) poly-L lysine and transfected the following day with 2.5 μg of DNA using Lipofectamine™ LTX Transfection Reagent. After 24 h, cells were labelled for 30 min with 12.5 μM 1,2-ethanedithiol (EDT) and 0.5 μM FlAsH (Life Technologies) in HBSS and then washed twice for 15 min in 150 μM 2,3-dimercaptopropanol (BAL) in HBSS. Cells were fixed with 4% (w/v) paraformaldehyde for 15 min at RT and then imaged using an inverted Leica TCS SP2 confocal microscope interfaced with an Ar Laser (488 nm/20 mW), equipped with AOBS and operated at a magnification of 63x (HCX PL APO 63x/1.40 - oil - Lambda blue correction). Images were processed using LCS Lite (Leica Microsystems, Heidelberg).

[4] = complexes of FlAsH with some dodecapeptides including CCPGCC; 'as low as'; read-out: apparent dissociation constant; cited from earlier work
Text: According to a strategy devised by Tsien and co-workers, some fluorogenic biarsenicals can covalently bind proteins that contain a tetracysteine motif, CCXXCC, thereby strongly enhancing their emission quantum yield and making such tetracysteine-containing proteins observable within cells. The CCPGCC sequence features a hairpin conformation that optimizes the covalent binding of each As atom of the probe to the S atoms of two cysteine units. Apparent dissociation constants as low as 4 pM have been measured for complexes formed between the fluorescein diarsenical probe FlAsH and some do ...

Structure (SMILES)	Km [1]	FlAsH emission, TC-hTS cell lysate versus hTS cell lysate ([2]; after fourth addition, total FlAsH 0.6 μM)	duration of FlAsH emission increase after addition of the probe ([2]; printed for the hTS-expressing cells)	green fluorescence enhancement [3]	Kd [4]
Nc1nc2c(c(=O)[nH]1)N1CN(c3ccc(C(=O)N[C@@H](CCC(=O)O)C(=O)O)cc3)CC1CN2 (some centres unmarked) [mTHF, 5,10-methylenetetrahydrofolate]	5.87 µM	–	–	–	–
O=C(O)c1ccccc1-c1c2ccc(=O)c([As]3SCCS3)c-2oc2c([As]3SCCS3)c(O)ccc12 [FlAsH]	–	2.5 times	approximately forty	green fluorescence enhancement only in TC-hTS-transfected cells	≥ 4 pM
